Laboratory results as given in patent publication US7019132B2, “Porphyrin derivatives” (Kostarworld Co., Ltd., priority 2003, dated 2006).

Legend:
EMT6 cells [1] = system: EMT6 cells
mouse EMT6 cell line [2] = system: mouse EMT6 cell line
Procedure: (§2) Breast cancer cell line (EMT6; 1×10^6 cells/mouse) was cultured in culture medium (DMEM+10% FBS+100 units of Penicillin+100 μg streptomycin), treated with 0.25% Trypsin-EDTA to collect the cells and the number of cells was counted using by Trypan blue staining reagent.
(§3) Each 3 ml of cells was added to 35 mm of culture dish in the concentration of 2×10^5 cells/ml and incubated in 5% CO2 incubator for 24 hrs in order that the cells be arranged to be made a mono-layer.
(§4) Photosensitizing substance was added thereto and irradiation was subjected thereon at the strength of 1.2 J using by halogen lamp. The culture dishes were transferred to incubators and incubated.
(§5) The cell cytotoxicity caused by PDT was analyzed by MTT assay and the morphology of cells was observed by microscopy.
(§6) Conventional photosensitizer, i.e., photogem®, was used as a comparative control group and several factors such as the concentration of test samples, the irradiation strength of light and the absorption time of samples etc were modified in the present experiment.

EMT6 tumor = test: In vivo PDT assay, EMT6 breast cancer transplanted to BALB/c mouse
Procedure: DH-1-180-3 as a test sample of the present invention and photofrin (photogem®) as a control group were used in test.
The tumor size of each mice was determined using by caliper at the interval of 2 or 3 days and the survival ratio of the mice according to tumor was also determined.

mouse EMT6 cell line [3] = test: Cell cytotoxicity caused by PDT on EMT6 cell line, MTT assay
Procedure: as §2, §3, §4, §5, §6

EMT6 cell = test: MMP (mitochondrial membrane potential), JC-1 dye staining, FACS analysis; format: cell-based, mouse; conditions: after PDT, JC-1 staining
Description: FIG. 8 depicts the diagram determining MMP (mitochondrial membrane potential) within EMT6 cell after the treatment of PDT and JC-1 dye staining by FACS analysis.

[4] = Acute toxicity test on Sprague-Dawley rats; format: in vivo; conditions: i.p. 20, 10 and 1 mg/kg, observed 24 hrs
Procedure: (§1) The acute toxicity tests on ICR mice (mean body weight 25±5 g) and Sprague-Dawley rats (235±10 g) were performed using the compounds 1 and 10. Each group consisting of 3 mice or rats was administrated intraperitoneally with 20 mg/kg, 10 mg/kg and 1 mg/kg of test compounds or solvents (0.2 ml, i.p.), respectively and observed for 24 hrs.

[5] = λexcitation 508 nm, toluene, air-saturated, 21° C.
Procedure: The transforming activity of the target compounds into singlet oxygen state was measured by following methods.
The experimental assay was performed under air-saturated condition (99.999% ultra-purified gas) using toluene (Merck Co. HPLC grade) as a solvent, in the oxygen concentration in the solution of 2.1×10^−3 M at 21° C.

EMT6 cells [6] = test: Annexin V/PI staining for cell apoptosis; format: cell-based, mouse; conditions: PDT treatment group 0.2 μg/hr; above 90% of cells survived in control
Description: FIG. 4 presents the staining result with Annexin V/PI staining to study the action mechanism of cell apoptosis.

[7] = Acute toxicity test on ICR mice; format: in vivo; conditions: i.p. 20, 10 and 1 mg/kg, observed 24 hrs
Procedure: as §1

methyl pheophorbide α triethylene glycol ester [DH-1-180-3]
concentration showing the strongest cell cytotoxicity (EMT6 cells [1]): at least 0.4 μg | duration time showing the strongest cell cytotoxicity (EMT6 cells [1]): at least 60 minutes | cell cytotoxicity without light (mouse EMT6 cell line [2]): do not show cell cytotoxicty | intensity of irradiating light for strongest cytotoxicity / optimum (mouse EMT6 cell line [2]): 1.2 J | growing ratio of tumor (EMT6 tumor; 0.4 and 0.8 mg/kg/mouse, light 1.2 J 3 h later, vs control and photofrin (2 mg/kg/mouse)): remarkably decreased | survival ratio (EMT6 tumor; PDT treatment group vs control group): extended | optimum absorption time (mouse EMT6 cell line [3]; 0.4 μg/ml, 1.2 J): 1 h | LD100 (mouse EMT6 cell line [3]; EMT6, MTT assay, with light irradiation): 0.4 µg | optimum concentration of photosensitizer used in PDT (mouse EMT6 cell line [3]; absorption 1 hour, 1.2 J, analysis at 24 hrs): 0.4 µg/mL | MMP (mitochondrial membrane potential) (EMT6 cell): remarkably decreased | acute toxicity findings [4]: no treatment-related effects on mortality, clinical signs, body weight changes and gross findings | transformed photon yield (singlet oxygen state) [5]: 0.60 (5%) | dead cells (EMT6 cells [6]): 50 to 60% | acute toxicity findings [7]: no treatment-related effects on mortality, clinical signs, body weight changes and gross findings
